Data on three compounds can be found in article PMC8260592 (Scientific Reports, 2021).

“Also recorded” adds a separate entry of the source. Where two headings read alike, the source gives them in different places. A value given as a limit tells only on which side of the number the result lay.

Data set [1] addresses T1, AChE (Electrophorus electricus, UniProt O42275). The data set is described as follows: Kinetics of AChE inhibition (Lineweaver-Burk and secondary plots). The format is biochemical. As to conditions: for Mode of AChE inhibition: LB plots. As for the experimental part:
(§1) Inhibitory patterns and Ki values were determined using Lineweaver–Burk (LB) plots and secondary plots of LB slopes.
Substrate concentrations ranged from 0.05 to 1.0 mM. […] Initial reaction rates are expressed as increases in absorbance per min.

Data set [2] deals with MAO-B. The note with it: rat brain mitochondrial fractions; cited from earlier work.
The target in the next data set is T2, Recombinant human MAO-A (Homo sapiens, UniProt P21397).
T2 construct: purchased Sigma-Aldrich
T2 sequence (P21397 1-527): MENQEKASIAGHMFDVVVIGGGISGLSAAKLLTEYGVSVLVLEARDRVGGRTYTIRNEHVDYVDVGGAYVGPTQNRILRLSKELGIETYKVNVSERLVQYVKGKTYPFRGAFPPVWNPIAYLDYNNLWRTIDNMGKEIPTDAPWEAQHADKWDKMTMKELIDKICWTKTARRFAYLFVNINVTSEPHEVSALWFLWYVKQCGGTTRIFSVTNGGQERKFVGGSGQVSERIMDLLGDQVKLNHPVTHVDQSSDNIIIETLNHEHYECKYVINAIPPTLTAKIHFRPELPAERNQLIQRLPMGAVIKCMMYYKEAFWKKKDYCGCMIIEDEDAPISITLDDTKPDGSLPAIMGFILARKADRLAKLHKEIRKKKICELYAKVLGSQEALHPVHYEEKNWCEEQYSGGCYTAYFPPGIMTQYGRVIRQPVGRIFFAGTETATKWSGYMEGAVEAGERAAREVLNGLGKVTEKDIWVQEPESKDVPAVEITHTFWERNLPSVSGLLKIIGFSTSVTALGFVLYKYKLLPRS
The data set is described as follows: biochemical. The note with it: for remaining activity at 10 µM: read-out: Residual activity at 10 µM (%) MAO-A. As for the experimental part: (§2) AChE and BChE inhibitory activities were measured after preincubating enzymes with inhibitors for 15 min before adding substrates (ATCI and BTCI, respectively) and DTNB. AChE activities were assayed as previously described, with slight modification[21],[22]. […] MAO-A and MAO-B activities were determined using a continuous spectrophotometric method, as described previously[23],[24]. […] Reaction rates are expressed as changes in absorbance per min.
as §1

For data set [3], the target named is T3, MAO-B (Homo sapiens, UniProt P27338).
T3 construct: purchased Sigma-Aldrich
T3 sequence (P27338 1-520): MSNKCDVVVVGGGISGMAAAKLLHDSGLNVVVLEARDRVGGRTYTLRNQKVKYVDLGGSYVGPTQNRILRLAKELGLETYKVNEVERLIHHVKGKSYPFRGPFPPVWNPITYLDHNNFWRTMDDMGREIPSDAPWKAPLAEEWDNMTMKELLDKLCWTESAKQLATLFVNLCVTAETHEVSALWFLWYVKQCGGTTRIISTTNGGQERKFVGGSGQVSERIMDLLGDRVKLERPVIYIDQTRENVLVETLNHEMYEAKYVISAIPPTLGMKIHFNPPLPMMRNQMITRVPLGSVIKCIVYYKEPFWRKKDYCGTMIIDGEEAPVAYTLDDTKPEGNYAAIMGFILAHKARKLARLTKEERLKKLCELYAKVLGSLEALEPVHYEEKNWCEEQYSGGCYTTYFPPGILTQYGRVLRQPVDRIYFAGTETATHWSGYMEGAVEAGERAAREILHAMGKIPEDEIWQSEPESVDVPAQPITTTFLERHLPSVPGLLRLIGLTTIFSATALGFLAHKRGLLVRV
The data set is described as follows: biochemical. As to conditions: for remaining activity at 10 µM: read-out: Residual activity at 10 µM (%) MAO-B. On the procedure: as §2, §1

Data set [4] addresses T3, MAO-B. The data set can be described thus: Reversibility of MAO-B inhibition by dialysis. Format: biochemical. On the procedure: (§3) After preincubating three compounds or reference inhibitors with enzymes for 15 min, residual activities of undialyzed (AU) and dialyzed (AD) samples were expressed as percentages of those of non-inhibitor treated controls. Reversibilities were assessed using AU and AD values and compared with those of reference compounds.
(§4) After preincubating the compounds with enzymes for 15 min, the mixtures were dialyzed for 6 h with two buffer changes. Results are the averages of duplicate or triplicate experiments.

Another data set deals with T4, BChE (equine serum) (Equus caballus, UniProt P81908).
T4 construct: BChE (equine serum); purchased Sigma-Aldrich; host or cells: equine serum
T4 sequence (P81908 whole entry): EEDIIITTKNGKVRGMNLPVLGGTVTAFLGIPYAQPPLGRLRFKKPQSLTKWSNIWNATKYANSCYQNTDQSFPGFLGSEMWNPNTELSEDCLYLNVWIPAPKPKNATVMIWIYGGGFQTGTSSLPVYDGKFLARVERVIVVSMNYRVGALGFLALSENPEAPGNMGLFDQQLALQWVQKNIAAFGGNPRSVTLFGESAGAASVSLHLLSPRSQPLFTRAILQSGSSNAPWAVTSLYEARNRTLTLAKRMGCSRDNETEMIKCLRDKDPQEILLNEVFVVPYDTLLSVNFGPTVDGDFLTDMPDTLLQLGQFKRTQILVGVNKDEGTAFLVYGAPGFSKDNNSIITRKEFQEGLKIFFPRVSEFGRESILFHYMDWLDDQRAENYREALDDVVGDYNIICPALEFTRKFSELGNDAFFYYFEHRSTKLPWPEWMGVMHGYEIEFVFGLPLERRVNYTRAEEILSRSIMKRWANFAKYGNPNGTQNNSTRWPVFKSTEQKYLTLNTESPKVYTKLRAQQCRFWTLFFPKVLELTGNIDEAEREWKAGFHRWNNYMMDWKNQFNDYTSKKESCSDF
The data set can be described thus: biochemical. As to conditions: for remaining activity at 10 µM: read-out: Residual activity at 10 µM (%) BChE. On the procedure: (§5) AChE and BChE inhibitory activities were measured after preincubating enzymes with inhibitors for 15 min before adding substrates (ATCI and BTCI, respectively) and DTNB. AChE activities were assayed as previously described, with slight modification[21],[22]. […] MAO-A and MAO-B activities were determined using a continuous spectrophotometric method, as described previously[23],[24]. […] Reaction rates are expressed as changes in absorbance per min. […]

Data set [5] addresses AChE (Type VI-S from Electrophorus electricus) (Electrophorus electricus, UniProt O42275). The data set can be described thus: biochemical. As to conditions: for SI: IC50 for BChE divided by IC50 for AChE; for remaining activity at 10 µM: read-out: Residual activity at 10 µM (%) AChE. As for the experimental part: as §5
For data set [6], the system named is Madin-Darby canine kidney (MDCK) cells. The data set can be described thus: Cytotoxicity test, CCK-8 assay. As to conditions: 50 µM, 24 h, CCK-8. On the procedure:
(§6) Madin-Darby canine kidney (MDCK) cells and human acute promyelocytic leukemia (HL-60) cells were obtained from the Korean Cell Line Bank (Seoul, Korea). […] Cultures were maintained at 37 °C under 5% CO2, and media were changed every two days.
(§7) Cell viabilities were determined using the CCK-8 assay. Briefly, MDCK cells or HL-60 cells were resuspended at 1 × 10^5 or 3 × 10^5 cells/mL and suspensions (100 µL) were added to wells of a 96-well plate and incubated in 5% CO2 atmosphere at 37 °C for 24 h. After incubation, 100 µL of each medium was treated with compounds at 1, 3, 10, 30, or 50 µM and incubated in 5% CO2 at 37 °C for 24 h. CCK-8 (10 µL/well) was then added to 100 µL aliquots from each cell and incubated 2–4 h. Absorbances were measured at 450 nm using a microplate reader (Versamax, Molecular Devices, San Jose, CA, USA).
(§8) Both cell lines were treated with each compound (at 1, 3, 10, 30, or 50 µM) for 24 h. Culture supernatants were then removed and CCK-8 was added. […] Data are expressed as the means ± SDs of triplicate experiments.
In general terms: Formazan colour is commonly taken as a measure of viable cells.

For data set [7], the system named is human acute promyelocytic leukemia (HL-60) cells. The data set can be described thus: Cytotoxicity test, CCK-8 assay. The note with it: 50 µM, 24 h, CCK-8. On the procedure:
as §6, §7, §8

The target of data set [8] is T3, MAO-B. The data set is described as follows: Kinetics of MAO-B inhibition (Lineweaver-Burk and secondary plots). The format is biochemical. As for the experimental part: as §1
A further data set concerns the target T5, BACE-1 (Homo sapiens, UniProt P56817).
T5 construct: purchased Sigma-Aldrich
The data set can be described thus: BACE-1 activity detection kit (fluorescence). The note with it: read-out: Residual activity at 10 µM (%) BACE-1. Format: biochemical.

The target of data set [9] is T1, AChE. The data set is described as follows: Reversibility of AChE inhibition by dialysis. The format is biochemical. As for the experimental part:
as §3, §4

Data set [10] relates to AChE. As to conditions: cited from earlier work.
Data set [11] deals with MAO-B. The note with it: ref 22; cited from earlier work.
A short description of data set [12]: Cytotoxicity test, CCK-8 assay. As for the experimental part: as §6, §7, §8

AChE (Type VI-S from Electrophorus electricus), sequence (O42275 24-633): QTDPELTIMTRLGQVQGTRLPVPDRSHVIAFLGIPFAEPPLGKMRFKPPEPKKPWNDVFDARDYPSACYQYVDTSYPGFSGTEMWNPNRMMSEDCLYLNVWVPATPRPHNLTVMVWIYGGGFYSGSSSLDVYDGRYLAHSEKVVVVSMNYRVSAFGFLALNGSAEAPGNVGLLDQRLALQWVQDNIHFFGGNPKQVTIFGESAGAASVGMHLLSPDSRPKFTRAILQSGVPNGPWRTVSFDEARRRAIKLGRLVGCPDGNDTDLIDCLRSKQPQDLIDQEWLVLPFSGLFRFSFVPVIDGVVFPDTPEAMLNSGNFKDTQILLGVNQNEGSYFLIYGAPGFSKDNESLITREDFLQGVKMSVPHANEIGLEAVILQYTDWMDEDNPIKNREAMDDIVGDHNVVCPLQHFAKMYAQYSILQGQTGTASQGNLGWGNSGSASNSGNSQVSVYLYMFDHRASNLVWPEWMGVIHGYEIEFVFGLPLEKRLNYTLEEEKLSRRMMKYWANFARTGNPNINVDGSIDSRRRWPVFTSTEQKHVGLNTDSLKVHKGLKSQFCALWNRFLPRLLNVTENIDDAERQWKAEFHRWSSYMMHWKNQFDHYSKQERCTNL
T1 sequence (O42275 24-633): as above
T5 sequence (P56817 46-457): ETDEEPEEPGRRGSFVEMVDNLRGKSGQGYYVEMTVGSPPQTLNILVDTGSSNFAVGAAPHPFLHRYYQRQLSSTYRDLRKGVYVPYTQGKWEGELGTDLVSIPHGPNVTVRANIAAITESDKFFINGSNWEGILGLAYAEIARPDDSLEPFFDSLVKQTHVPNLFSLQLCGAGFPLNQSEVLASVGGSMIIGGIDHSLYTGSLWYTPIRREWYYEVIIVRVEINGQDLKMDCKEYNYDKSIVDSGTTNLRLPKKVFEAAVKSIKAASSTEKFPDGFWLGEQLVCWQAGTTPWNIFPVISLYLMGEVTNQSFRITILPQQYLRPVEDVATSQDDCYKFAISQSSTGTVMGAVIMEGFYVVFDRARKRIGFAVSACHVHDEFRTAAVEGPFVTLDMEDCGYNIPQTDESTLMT

For orientation: Ki means a measure of affinity in units of concentration, obtained from inhibition or displacement. As a reminder, the IC50 is the concentration at which inhibition is half-maximal. One may read the inhibition as the change of the read-out against control, counted positive when it falls. In the case of `O=c1oc2c(O)c(O)cc3c(=O)oc4c(O)c(O)cc1c4c23` [Compound 5, ellagic acid], the values for the Ki on AChE [1] and at MAO-B [8] were 9.43 ± 2.51 µM and 7.51 ± 1.86 µM, respectively. Besides, the “Mode of AChE inhibition” value on AChE [1] was “competitively; also recorded: competitive but partly mixed; also recorded: competitive but partially mixed”. Moreover, the IC50 was 0.412 µM in the data set on MAO-B [2]; greater than 40 µM on Recombinant human MAO-A; 9.21 ± 0.16 µM against MAO-B [3]; greater than 40 µM against BChE (equine serum); 41.7 ± 2.4 µM in data set [5]; 133 µM in the data set with AChE [10] (ref 43). In addition, the remaining activity at 10 µM on Recombinant human MAO-A was found to be 99.5 ± 0.7%; on MAO-B [3], 45.4 ± 4.1%; at BChE (equine serum) it was 96.9 ± 5.8%; in [5] it was 81.5 ± 4.2%; at BACE-1, 59.1 ± 0.3%. At MAO-B [3] (10 µM), this compound came in with an inhibition at 10 µM greater than 50%. In addition, at MAO-B [4], the “Reversibility of MAO-B inhibition” value is on record as “reversible inhibitors”. In [5], the SI is reported as greater than 1.0. Besides, the MDCK cell viability entry in [6] is reported as “slightly or non-toxic; also recorded: negligible effects; also recorded: non-toxic or slightly toxic”. For the same compound, the HL-60 cell viability entry in data set [7] is given as “negligible effects; also recorded: non-toxic or slightly toxic”. Moreover, the “Mode of MAO-B inhibition” value at MAO-B [8] (LB plots) is given as “competitive”. Further, at AChE [9], the “Reversibility of AChE inhibition” value is recorded as “reversibly; also recorded: reversible inhibitors”.
Turning to `COc1cc(C[C@H](C)[C@H](C)Cc2ccc3c(c2)OCO3)ccc1O` [macelignan], the IC50 is 7.42 µM in the data set on MAO-B [11] and 4.16 µM in the data set with AChE [10] (ref 22).
One may read the viability as the share of living cells, or the viability signal relative to a control. On to `COc1cc2c(=O)oc3c(OC)c(O)cc4c(=O)oc(c1OC)c2c34` [Compound 4, 3,3′,4-tri-O-methylellagic acid], for which, at AChE [1], the “Mode of AChE inhibition” value was “competitively; also recorded: competitive but partly mixed; also recorded: competitive but partially mixed”. Also, the Ki at AChE [1] (secondary plots of LB slopes, substrate 0.05-1.0 mM, read-out: Ki for AChE) was 3.74 ± 0.26 µM. The IC50 at Recombinant human MAO-A (read-out: IC50 (µM) MAO-A) was greater than 40 µM; at MAO-B [3] (read-out: IC50 (µM) MAO-B), greater than 40 µM; on BChE (equine serum) it was greater than 40 µM; in data set [5], 10.7 ± 1 µM. Also, the remaining activity at 10 µM stood at 83.1 ± 4.7% at Recombinant human MAO-A; 89.1 ± 4.1% at MAO-B [3]; 92.3 ± 2.3% on BChE (equine serum); 53.2% in data set [5]; 90.1 ± 0.4% on BACE-1. Besides, the SI in [5] is on record as greater than 3.7. In addition, in [5] (read-out: Inhibition of AChE), the inhibition at 10 µM was roughly 50%. In data set [6], the MDCK cell viability result is reported as “slightly or non-toxic; also recorded: non-toxic or slightly toxic”. Further, in data set [7], the HL-60 cell viability entry is listed as “non-toxic or slightly toxic”. The viability at 24 h, 50 µM in data set [12] (dog, MDCK cells) amounted to 67.9%; in data set [12] (human, HL-60 cells), 84.6%. At AChE [9], the “Reversibility of AChE inhibition” value is “reversibly; also recorded: reversible inhibitors”.
